The results in this text go back to patent US8852869B2, “Method of determining functional deficiencies in the complement system” (Immunobond ApS, priority 2007, dated 2014).

The test system of this assay is alternative complement pathway (AP). Kind of assay: Functional capacity of the alternative pathway on LPS-coated surface. In kind it is biochemical, human. Conditions: 10 mM EDTA present in the dilution buffer; data not shown. Here is the method:
The protocol for the functional capacity of the AP was similar to the method for the CP assay, with the following modification: Lipopolysaccharide W S. typhimurium (10 ug/ml) (lot. 51974, DICO LABORAORIES, US) was coated in 1M NaCl and used as activating surface for AP activation. The serum samples were diluted in dilution buffer with 4 mM Mg^2+, 10 mM EGTA, and 0.05% Tween-20 and were incubated for 60 min at 37° C. The C3, properdin and C9 deposition was measured by adding 100 μl of mAbs.
The influence of PAS on complement activation via the AP was also analyzed. NHS and C2-deficient serum diluted in dilution buffer containing 4 mM Mg^2+ and 10 mM EGTA was incubated in microtiter-wells (PolySorp), coated with LPS as described above in the presence or absence of PAS and deposition of complement components (C3b/C3bi, properdin and C9) was detected.
Various concentrations of PAS were used in order to determine a dose-response curve for PAS. Experiments were performed as described above only with varying the amount of PAS added to the sample.

On to `O=C(O)CN(CCN(CC(=O)O)CC(=O)O)CC(=O)O` [EDTA], for which the “Deposition of C3, properdin and C9 (all three complement components)” value is “reduced to background levels”.
